Experimental data reported in paper PMC8899820, “Pharmacokinetics, Tissue Distribution, and Excretion Characteristics of a Radix Polygoni Multiflori Extract in Rats” (Frontiers in Pharmacology, 2022).
Where two headings read alike, the source gives them in different places.

Experiments:
[1] = Biliary excretion in bile duct drained rats after oral RPM extract; conditions: single p.o. RPM extract 18 g/kg, rat bile
Protocol: (§1) For the excretion study, the rats were housed singly in metabolic cages with urine collection tubes kept at 4 °C during sample collection. Urine and fecal samples were collected at time intervals of 0–4, 4–8, 8–24, 24–32, and 32–48 h after a single dose of RPM extract at 18 g/kg and then weighed. Another six rats were anesthetized with pentobarbital, fixed in the supine position and subjected to bile duct drainage surgery, and the abdominal wound was sutured. Blank bile samples were collected before the administration of RPM. The rats were weighed, and the state of the rats was observed. Subsequently, they were orally administered 18 g/kg RPM extract. The bile samples were collected at time intervals of 0–1, 1–2, 2–4, 4–6, 6–8, 8–24, 24–32 and 32–48 h. The urine, feces, and bile samples were stored at −70°C until use.
(§2) Samples were prepared using the protein precipitation process. […] After vortex shaking for 5 min and centrifugation at 14,000 g for 5 min, 150 μL of the organic layer was transferred to a clean tube and evaporated to dryness at 25°C under a stream of nitrogen. The residue was reconstituted in 50 μL of the initial mobile phase and subjected to another round of centrifugation at 14,000 g for 5 min, and 5 μL of the supernatant was injected for LC–MS/MS analysis. […] Urine and bile samples were centrifuged at 4°C and 12,000 × g for 15 min. Fecal samples were homogenized in 0.9% saline and then centrifuged at 4°C and 12,000 × g for 15 min to gather the fecal homogenates. Tissue homogenate, urine, bile and fecal samples were subjected to a similar process as the rat plasma samples.
(§3) For the excretion study, 6 rats were placed in metabolic cage after orally administered with 18 g/kg RPM extract, and urine, feces samples were collected at time intervals of 0–4, 4–8, 8–24, 24–32, 32–48, 48–60, and 60–72 h. Another 6 rats were anesthetized with pentobarbital, fixed in the supine position and performed bile duct drainage operation, and the abdominal wound was sutured. […] Subsequently, they were orally administered with 18 g/kg RPM extract. The bile samples were collected at time intervals of 0–1, 1–2, 2–4, 4–6, 6–8, 8–24, 24–32 and 32–48 h. The urine, feces, and bile samples were stored at −70 °C until use.

[2] = Tissue distribution of RPM constituents after oral RPM extract; conditions: for AUC(0-t): Sprague-Dawley, rat, po, 18 g/kg
Protocol: For the tissue distribution study, 18 rats were randomly divided into three groups (n = 6, each) and orally administered 18 g/kg RPM extract. The rats under isoflurane anesthesia were sacrificed by bleeding from the abdominal aorta at 5, 15, and 60 min (six rats per time point) after gavage with 18 g/kg RPM extract. Subsequently, the heart, liver, spleen, lung, kidney, brain, stomach, small intestine, bladder, and gonads (testes of male rats, and uterus and ovaries of female rats) were immediately collected. An accurately weighed amount of fresh tissue sample (0.25 g) was individually homogenized with normal saline (1 ml) and transferred (50 μL) as a tissue homogenate to 1.5 ml centrifuge tubes for use as the tissue samples. All tissue samples were stored at −70°C until analysis.
Samples were prepared using the protein precipitation process. […] The tissue samples were homogenized in four parts of ice-cold 0.9% saline solution and then centrifuged at 4°C and 12,000 × g for 10 min to obtain tissue homogenates. […] Tissue homogenate, urine, bile and fecal samples were subjected to a similar process as the rat plasma samples.
For the tissue distribution study, 18 rats were randomly divided into three groups (n=6, each), and orally administered with 18 g/kg RPM extract. The rats were sacrificed at 5, 15, 60 min after orally administering RPM. Subsequently, the heart, liver, spleen, lung, kidney, brain, stomach, small intestine, bladder, gonad (testes of male rats, uterus and ovaries of female rats) were immediately collected. An accurately weighed amount of fresh tissue sample (0.25 g) was individually homogenized with normal saline (1 mL) and transferred (50 μL) as a tissue homogenate to 1.5 mL centrifuge tubes for use as the tissue samples.

[3] = RPM extract 36 g/kg p.o., rat plasma, Mean ± SD, n = 6; ref Cheng et al., 2020; cited from earlier work
[4] = Dose-exposure relationship (power function model with confidence interval method)
Protocol: (§4) The pharmacokinetic parameters, including the area under the plasma concentration-time curve from time zero to time t (AUC0-t) to time infinity (AUC0-∞), the time to reach the maximum plasma concentration (T max), the elimination half-time (t 1/2), and the maximum plasma concentration (C max), were calculated using the pharmacokinetic software Phoenix® WinNonlin®, version 7.0 (Scientific Consulting Inc., Apex, NC, United States). Data are expressed as the mean ± standard deviation (SD) for each group. The dose-exposure relationship was evaluated by the power function model combined with the confidence interval method ([Smith et al., 2000]; [Sethuraman et al., 2007]; [Hummel et al., 2009]). First, the administration dose, AUC0-∞ and C max were logarithmically transformed, and then a linear regression was performed to obtain the curve correlation coefficient (R^2), slope and 90% confidence interval (90% CI).

[5] = Excretion into urine and feces and mass balance after oral RPM extract; conditions: for dose excreted: Sprague-Dawley, rat, po, mass balance, 18 g/kg RPM extract p.o.; for cumulative excretion into feces / cumulative excretion into urine: single p.o. RPM extract 18 g/kg; for cumulative excretion into feces: rat feces; for cumulative excretion into urine: rat urine
Protocol: as §1, §2, §3

[6] = Plasma pharmacokinetics of RPM constituents after oral RPM extract; conditions: for time at which C max was exhibited: RPM extract p.o.; for AUC(0-inf) / AUC(0-t) / Cmax / MRT inf / Tmax / half-life: Sprague-Dawley, rat, plasma, po
Description: For the pharmacokinetic (PK) study, three groups (n = 6 each) of rats were orally administered RPM extract (6, 18, and 36 g/kg). In the plasma pharmacokinetics experiment, doses were 6, 18, and 36 g/kg for the single administration group and 18 g/kg for the continuous administration group. The doses were set at a subtoxic level ([Zhang et al., 2013]; [Wang et al., 2015]) to investigate the pharmacokinetic profiles of the constituents of RPM (36 g/kg group) and were approximately 60 times the upper dose (6 g/day) for humans recommended by the 2020 edition of Chinese Pharmacopoeia ([Chinese Pharmacopoeia Commission, 2020]), which was converted to a dose for rats based on body surface area conversion ([Reagan-Shaw et al., 2008]). In addition, the low and medium doses decreased in a certain proportion. Serial blood samples (∼120 μL; before dosing and at 5, 15, and 30 min, and 1, 2, 4, 6, 8, 12, and 24 h after administration) were collected in heparinized tubes from the orbital sinus under light isoflurane. The blood samples were centrifuged at 12000 g for 2 min, and the plasma fractions were decanted and frozen at −70°C until analysis.
Samples were prepared using the protein precipitation process. Rat plasma (50 μL) spiked with 10 μL of IS (puerarin 100 ng/ml) was extracted with 150 μL acetonitrile. After vortex shaking for 5 min and centrifugation at 14,000 g for 5 min, 150 μL of the organic layer was transferred to a clean tube and evaporated to dryness at 25°C under a stream of nitrogen. The residue was reconstituted in 50 μL of the initial mobile phase and subjected to another round of centrifugation at 14,000 g for 5 min, and 5 μL of the supernatant was injected for LC–MS/MS analysis.
The analysis was performed on an AB Sciex API 5500 Q Trap mass spectrometer (Toronto, Canada), interfaced with a Waters Acquity UPLC separation module.
as §4

[7] = ref Liu et al., 2010; cited from earlier work
[8] = design: method as in Wang P. et al., 2011; conditions: ref Wang P. et al., 2011, cited from earlier work
[9] = AUC0-∞ vs p.o. dose of RPM extract, critical interval 0.88–1.12
[10] = log AUC0-∞ vs log p.o. dose of RPM extract, critical interval 0.88–1.12
[11] = log C max vs log p.o. dose of RPM extract, critical interval 0.80–1.20
[12] = feces, Recovery in feces (%), feces collected 0–72 h
[13] = urine and feces, Recovery in urine and feces (%), urine plus feces, 0–72 h
[14] = urine, Recovery in urine (%), urine collected 0–72 h

SMILES: Cc1cc(O)c2c(c1)C(=O)c1cc(O)cc(O)c1C2=O [Emodin, emodin]
- cumulative excretion into bile [1]: 70.7 ± 20.4 nmol
- AUC(0-t) ([2]; both, bladder): 0.988 µM·h
- AUC(0-t) ([2]; both, brain): 0.244 µM·h
- AUC(0-t) ([2]; both, heart): 1.64 µM·h
- AUC(0-t) ([2]; both, intestine): 5.57 µM·h
- AUC(0-t) ([2]; both, kidney): 2.83 µM·h
- AUC(0-t) ([2]; both, liver): 6.36 µM·h
- AUC(0-t) ([2]; both, lung): 7.11 µM·h
- AUC(0-t) ([2]; both, spleen): 19.1 µM·h
- AUC(0-t) ([2]; both, stomach): 1.72 µM·h
- AUC(0-t) ([2]; female, ovary): 0.57 µM·h
- AUC(0-t) ([2]; female, uterus): 0.773 µM·h
- AUC(0-t) ([2]; male, testis): 0.116 µM·h
- AUC0-t in spleen ([2]; rat tissue: spleen, 18 g/kg RPM extract p.o., tissues collected at 5, 15, 60 min): 19.1 µM·h
- AUC0-∞ [3]: 2,970 ± 863 nmol·h/L
- AUC(0-t) [3]: 2,540 ± 694 nmol·h/L
- Cmax [3]: 648 ± 125 nM
- Conclusion (dose-exposure relationship) [4, 9]: Nonlinear correlation
- Conclusion (dose-exposure relationship) ([4]; C max vs p.o. dose of RPM extract, critical interval 0.80–1.20): Nonlinear correlation
- Slope (90%CI) [4, 10]: 0.466 (0.290–0.642)
- Slope (90%CI) [4, 11]: 0.656 (0.554–0.758)
- dose excreted [5, 12]: 23.6%
- dose excreted [5, 13]: 32.5%
- dose excreted [5, 14]: 8.82%
- cumulative excretion into feces [5]: 50.3 ± 6.18 nmol
- cumulative excretion into urine [5]: 19.0 ± 3.81 nmol
- time at which C max was exhibited ([6]; rat plasma): ≤ 20 min
- AUC(0-inf) ([6]; 6 g/kg): 1.35 µM·h
- AUC(0-t) ([6]; 6 g/kg): 1.04 µM·h
- Cmax ([6]; 6 g/kg): 205 ± 39.4 nM
- MRT inf ([6]; 6 g/kg): 12.7 ± 4.65 h
- Tmax ([6]; 6 g/kg): 0.12 ± 0.07 h
- half-life ([6]; 6 g/kg): 7.72 ± 3.67 h
- AUC(0-inf) ([6]; 18 g/kg): 2.91 µM·h
- AUC(0-t) ([6]; 18 g/kg): 2.48 µM·h
- Cmax ([6]; 18 g/kg): 491 ± 35.8 nM
- MRT inf ([6]; 18 g/kg): 13 ± 4.18 h
- Tmax ([6]; 18 g/kg): 0.14 ± 0.09 h
- half-life ([6]; 18 g/kg): 9.44 ± 3.63 h
- logP [7]: 5.03

SMILES: COc1cc(O)c2c(c1)C(=O)c1cc(C)cc(O)c1C2=O [Physcion, physcion]
- Peff ([8]; colon): (7.45 ± 3.30) × 10^–3 cm/min
- Peff ([8]; duodenum): (3.32 ± 1.50) × 10^–3 cm/min
- Peff ([8]; ileum): (2.40 ± 0.58) × 10^–3 cm/min
- Peff ([8]; jejunum): (2.30 ± 1.57) × 10^–3 cm/min
- plasma concentrations ([6]; RPM extract 6, 18 and 36 g/kg p.o., rat plasma): too low to be detected

SMILES: COc1cc(O[C@@H]2O[C@H](CO)[C@@H](O)[C@H](O)[C@H]2O)c2c(O)c(C(C)=O)c(C)cc2c1 [TG, torachrysone-8-O-glucoside]
- cumulative excretion into bile [1]: 8.96 ± 2.38 nmol
- AUC(0-t) ([2]; both, bladder, AUC0-t in bladder, rat tissue: bladder, 18 g/kg RPM extract p.o., tissues collected at 5, 15, 60 min): 0.438 µM·h
- AUC(0-t) ([2]; both, brain, AUC0-t in brain, rat tissue: brain, 18 g/kg RPM extract p.o., tissues collected at 5, 15, 60 min): 0.0185 µM·h
- AUC(0-t) ([2]; both, heart, AUC0-t in heart, rat tissue: heart, 18 g/kg RPM extract p.o., tissues collected at 5, 15, 60 min): 1.78 µM·h
- AUC(0-t) ([2]; both, intestine, AUC0-t in intestine, rat tissue: intestine, 18 g/kg RPM extract p.o., tissues collected at 5, 15, 60 min): 0.181 µM·h
- AUC(0-t) ([2]; both, kidney, AUC0-t in kidney, rat tissue: kidney, 18 g/kg RPM extract p.o., tissues collected at 5, 15, 60 min): 0.845 µM·h
- AUC(0-t) ([2]; both, liver, AUC0-t in liver, rat tissue: liver, 18 g/kg RPM extract p.o., tissues collected at 5, 15, 60 min): 3.81 µM·h
- AUC(0-t) ([2]; both, lung, AUC0-t in lung, rat tissue: lung, 18 g/kg RPM extract p.o., tissues collected at 5, 15, 60 min): 0.438 µM·h
- AUC(0-t) ([2]; both, spleen, AUC0-t in spleen, rat tissue: spleen, 18 g/kg RPM extract p.o., tissues collected at 5, 15, 60 min): 1.19 µM·h
- AUC(0-t) ([2]; both, stomach, AUC0-t in stomach, rat tissue: stomach, 18 g/kg RPM extract p.o., tissues collected at 5, 15, 60 min): 1.46 µM·h
- AUC(0-t) ([2]; female, ovary, AUC0-t in ovary, rat tissue: ovary, 18 g/kg RPM extract p.o., tissues collected at 5, 15, 60 min): 0.153 µM·h
- AUC(0-t) ([2]; female, uterus, AUC0-t in uterus, rat tissue: uterus, 18 g/kg RPM extract p.o., tissues collected at 5, 15, 60 min): 0.38 µM·h
- AUC(0-t) ([2]; male, testis, AUC0-t in testis, rat tissue: testis, 18 g/kg RPM extract p.o., tissues collected at 5, 15, 60 min): 0.0698 µM·h
- AUC0-∞ [3]: 53.0 ± 18.3 nmol·h/L
- AUC(0-t) [3]: 51.9 ± 18.1 nmol·h/L
- Cmax [3]: 45.8 ± 9.94 nM
- MRT0-∞ [3]: 2.10 ± 0.24 h
- t 1/2 [3]: 2.00 ± 0.63 h
- Conclusion (dose-exposure relationship) [4, 9]: Uncertainty of linear relationship
- Slope (90%CI) [4, 10]: 0.720 (0.464–0.977)
- Slope (90%CI) [4, 11]: 0.756 (0.627–0.884)
- dose excreted [5, 12]: 27.9%
- dose excreted [5, 13]: 45.5%
- dose excreted [5, 14]: 17.6%
- cumulative excretion into feces [5]: 30.4 ± 5.73 nmol
- cumulative excretion into urine [5]: 19.1 ± 2.99 nmol
- time at which C max was exhibited ([6]; rat plasma): ≤ 20 min
- AUC(0-inf) ([6]; 6 g/kg): 0.0166 ± 0.0109 µM·h
- AUC(0-t) ([6]; 6 g/kg): 0.0158 ± 0.0106 µM·h
- Cmax ([6]; 6 g/kg): 12.4 ± 2.66 nM
- MRT inf ([6]; 6 g/kg): 1.58 ± 0.77 h
- Tmax ([6]; 6 g/kg): 0.19 ± 0.09 h
- half-life ([6]; 6 g/kg): 1.23 ± 0.58 h
- AUC(0-inf) ([6]; 18 g/kg): 0.0495 ± 0.0171 µM·h
- AUC(0-t) ([6]; 18 g/kg): 0.048 ± 0.0172 µM·h
- Cmax ([6]; 18 g/kg): 37.3 ± 4.57 nM
- MRT inf ([6]; 18 g/kg): 2.23 ± 0.3 h
- Tmax ([6]; 18 g/kg): 0.11 ± 0.07 h
- half-life ([6]; 18 g/kg): 1.9 ± 0.22 h
